Data as given in paper PMC7997572 (2020).

Columns and labels:
Assay in all cases: CD melting
[1] = tested on: Tel23-p (DNA, G4) TTAGGGTTAGGGTTAGGGTTAGGGTT; settings: K+ (20 mM potassium phosphate, 5 mM KCl; Table S1 note: 5 mM phosphate, 20 mM KCl); pH 7.0; 150 μM compound (10 equiv), 15 μM DNA
[2] = tested on: c-Kit1 (DNA, G4) AGGGAGGGCGCTGGGAGGAGGG; settings: K+ (20 mM potassium phosphate, 5 mM KCl; Table S1 note: 5 mM phosphate, 20 mM KCl); pH 7.0; 150 μM compound (10 equiv), 15 μM DNA
[3] = tested on: Tel23-h (DNA, G4) TTAGGGTTAGGGTTAGGGTTAGGGTT; settings: K+ (20 mM potassium phosphate, 5 mM KCl; Table S1 note: 5 mM phosphate, 20 mM KCl); pH 7.0; 150 μM compound (10 equiv), 15 μM DNA
[4] = tested on: Hairpin (DNA, hairpin) CGAATTCGTTTTCGAATTCG; settings: K+ (20 mM potassium phosphate, 5 mM KCl; Table S1 note: 5 mM phosphate, 20 mM KCl); pH 7.0; 300 μM compound (10 equiv), 30 μM DNA
[5] = tested on: c-Kit2 (DNA, G4) CGGGCGGGCGCTAGGGAGGGT; settings: K+ (20 mM potassium phosphate, 5 mM KCl; Table S1 note: 5 mM phosphate, 20 mM KCl); pH 7.0; 150 μM compound (10 equiv), 15 μM DNA
[6] = tested on: c-Myc (DNA, G4) TGAGGGTGGGTAGGGTGGGTAA; settings: K+ (20 mM potassium phosphate, 5 mM KCl; Table S1 note: 5 mM phosphate, 20 mM KCl), pH 7.0, 150 μM compound (10 equiv), 15 μM DNA

Compound | ΔTm [2] | ΔTm [3] | ΔTm [4] | other results
CC(C)(C)c1cc(/C=N/NC(=N)N)c(O)c(/C=C2/C(=O)Nc3c2ccc2ccccc32)c1 | 1.5 ± 1.0 °C | 1.0 ± 1.0 °C | – | ΔTm [1]: 27.0 ± 1.0 °C
COc1cc2c(/C=N/NC(=N)N)c(Cl)n(C)c2cc1C | – | – | 7.0 ± 1.0 °C | –
Cc1cc2c(cc1O)/C(=C\c1cccc(/C=N/NC(=N)N)c1)C(=O)N2 | – | 10.0 ± 1.0 °C | – | –
NC(N)=N/N=C/c1c(Cl)n(C/C=C/c2ccccc2)c2ccccc12 | – | – | 0.0 ± 1.0 °C | –
O=C1Nc2c(ccc3ccccc23)/C1=C\c1cccc(/C=N/NC2=NCCN2)c1 | 14.5 ± 1.0 °C | – | – | ΔTm [5]: 26.0 ± 1.0 °C; ΔTm ([6]; exact value not determinable): > 22 °C
O=C1Nc2ccc(Cl)cc2/C1=C\c1cccc(/C=N/NC2=NCCN2)c1 | – | – | – | ΔTm [6]: 14.1 ± 1.0 °C
